From patent US12390437B2, “Itaconic acid derivatives and uses thereof intreating an inflammatory disease or a disease associated with an undesirable immune response” (Sitryx Therapeutics Limited, priority 2019, dated 2025)
pEC50, pIC50: −log10 of the molar value. Where two headings read alike, the source gives them in different places.

Tests used:
[1] = system: IL-1β cytokine output from THP-1s; test: THP-1 AlphaLISA IL-1β cytokine assay; format: cell-based, human; settings: Homo sapiens, LPS 24 hr then Nigericin 1 hour, read-out: IL-1β (IC50)
In short: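 THP-1 cells, PMA-differentiated 72 h; 30 min compound pre-incubation; LPS 24 h; nigericin 1 h; 37 °C/5% CO2. Supernatants read by AlphaLISA kit. IC50 from % inhibition vs concentration, normalised to +LPS (high) and −LPS (low) controls.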

[2] = system: IL-6 cytokine output from THP-1s; test: THP-1 AlphaLISA IL-6 cytokine assay; format: cell-based, human; settings: Homo sapiens; PMA-differentiated THP-1 cells, LPS 24 hr then Nigericin 1 hour
Method: Measuring Inhibitory Effects on IL-1β and IL-6 Cytokine Output from THP-1s
The cytokine inhibition profiles of compounds of formula (IW-1) were determined in a differentiated THP-1 cell assay. All assays were performed in RPMI-1640 growth medium (Gibco), supplemented with 10% fetal bovine serum (FBS; Gibco), 1% penicillin-streptomycin and 1% sodium pyruvate unless specified otherwise. The IL-1β and IL-6 cytokine inhibition assays were each run in a background of differentiated THP-1 cells as described below. All reagents described were from Sigma-Aldrich unless specified otherwise. Compounds were prepared as 10 mM DMSO stocks.
THP-1 cells were expanded as a suspension up to 80% confluence in appropriate growth medium. Cells were harvested, suspended, and treated with an appropriate concentration of phorbol 12-myristate 13-acetate (PMA) over a 72 hr period (37° C./5% CO2).
Following 72 hrs of THP-1 cell incubation, cellular medium was removed and replaced with fresh growth media containing 1% of FBS. Working concentrations of compounds were prepared separately in 10% FBS treated growth medium and pre-incubated with the cells for 30 minutes (37° C./5% CO2). Following the 30 minute compound pre-incubation, THP-1s were treated with an appropriate concentration of LPS and the THP-1s were subsequently incubated for a 24 hr period (37° C./5% CO2). An appropriate final concentration of Nigericin was then dispensed into the THP-1 plates and incubated for 1 hour (37° C./5% CO2) before THP-1 supernatants were harvested and collected in separate polypropylene 96-well holding plates.
Reagents from each of the IL-1β and IL-6 commercial kits (Perkin Elmer) were prepared and run according to the manufacturer's instructions. Subsequently, fluorescence signal detection in a microplate reader was measured (EnVision® Multilabel Reader, Perkin Elmer).
Percentage inhibition was calculated per cytokine by normalising the sample data to the high and low controls used within each plate (+/−LPS respectively). Percentage inhibition was then plotted against compound concentration and the 50% inhibitory concentration (IC50) was determined from the resultant concentration-response curve.

NRF2 = NRF2 +/-GSH activation assay (DiscoverX PathHunter NRF2 translocation kit, U2OS cells); format: cell-based; settings: Homo sapiens; for Emax: read-out: NRF2 activation Emax; for pEC50: read-out: NRF2 activation EC50
Method: Measuring Compound Activation Effects on the Anti-Inflammatory Transcription Factor NRF2 in DiscoverX PathHunter NRF2 Translocation Kit
Potency and efficacy of compounds of formula (IW-1) against the target of interest to activate NRF2 (nuclear factor erythroid 2-related factor 2) were determined using the PathHunter NRF2 translocation kit (DiscoverX). The NRF2 translocation assay was run using an engineered recombinant cell line, utilising enzyme fragment complementation to determine activation of the Keap1-NRF2 protein complex and subsequent translocation of NRF2 into the nucleus. Enzyme activity was quantified using a chemiluminescent substrate consumed following the formation of a functional enzyme upon PK-tagged NRF2 translocation into the nucleus.
The assay was run under either +/−GSH (glutathione) conditions to determine the attenuating activities of GSH against target compounds.
Additionally, a defined concentration of dimethyl fumarate was used as the ‘High’ control to normalise test compound activation responses to.
U2OS PathHunter eXpress cells were thawed from frozen prior to plating. Following plating, U2OS cells were incubated for 24 hrs (37° C./5% CO2) in commercial kit provided cell medium.
Following 24 hrs of U2OS incubation, cells were directly treated with an appropriate final concentration of compound, for −GSH conditions, or for +GSH conditions, an intermediate plate containing 6× working concentrations of compound stocks was prepared in a 6 mM working concentration of GSH solution (solubilised in sterile PBS). Following a 30 minute compound-GSH pre-incubation (37° C./5% CO2) for +GSH treatment, plated U2OS cells were incubated with an appropriate final concentration of compound and GSH.
Following compound (+/−GSH) treatment, the U2OS plates were incubated for a further 6 hours (37° C./5% CO2) before detection reagent from the PathHunter NRF2 commercial kit was prepared and added to test plates according to the manufacturer's instructions. Subsequently, the luminescence signal detection in a microplate reader was measured (PHERAstar®, BMG Labtech).
Percentage activation was calculated by normalising the sample data to the high and low controls used within each plate (+/−DMF). Percentage activation/response was then plotted against compound concentration and the 50% activation concentration (EC50) was determined from the plotted concentration-response curve.

[3] = THP-1, PMA-differentiated THP-1 cells
[4] = U2OS, normalised to dimethyl fumarate 'High' control, GSH condition not stated in Table 5
[5] = U2OS PathHunter cells, 6 hours, GSH condition not stated in Table 5

Compound	pIC50 [1, 3]	pIC50 [2]	further results
C=C(CC(=O)OC)C(=O)OC1COC1 [Example 15, 4-methyl 1-(oxetan-3-yl) 2-methylenesuccinate]	4.81	5.05	–
C=C(CC(=O)OC(C)C)C(=O)OCCS(C)(=O)=O [Example 22, 4-isopropyl 1-(2-(methylsulfonyl)ethyl) 2-methylenesuccinate]	4.81	5.15	–
C=C(CC(=O)OCCCCCCCC)C(=O)O[C@H]1CCOC1 [Example 23, (S)-4-octyl 1-(tetrahydrofuran-3-yl) 2-methylenesuccinate]	5.09	5.35	–
C=C(CC(=O)OCCCCCCCC)C(=O)O[C@@H]1CCOC1 [Example 24, (R)-4-octyl 1-(tetrahydrofuran-3-yl) 2-methylenesuccinate]	4.82	5.38	–
C=C(CC(=O)OC1CCCCCCC1)C(=O)OCCS(C)(=O)=O [Example 25, 4-cyclooctyl 1-(2-(methylsulfonyl)ethyl) 2-methylenesuccinate]	5.72	5.72	–
C=C(CC(=O)OCCCCCCCC)C(=O)OC(C)CC#N (stereo not drawn) [Example 27, 1-(1-cyanopropan-2-yl) 4-octyl 2-methylenesuccinate]	4.91	5.19	–
C=C(CC(=O)OCCCCCCCC)C(=O)OC1CCN(S(C)(=O)=O)CC1 [Example 28, 1-(1-(methylsulfonyl)piperidin-4-yl) 4-octyl 2-methylenesuccinate]	5.28	5.66	–
C=C(CC(=O)OCCCCCCCC)C(=O)OCCOC [Example 29, 1-(2-methoxyethyl) 4-octyl 2-methylenesuccinate]	4.74	5.10	–
C=C(CC(=O)OCCCCCCCC)C(=O)OCC(C)(C)C#N [Example 30, 1-(2-cyano-2-methylpropyl) 4-octyl 2-methylenesuccinate]	4.95	5.32	–
C=C(CC(=O)OCCCCCCCC)C(=O)OC(C)COC (stereo not drawn) [Example 31, 1-(1-methoxypropan-2-yl) 4-octyl 2-methylenesuccinate]	4.89	4.81	–
C=C(CC(=O)OCCCCCCCC)C(=O)OCC1(C#N)CC1 [Example 32, 1-((1-cyanocyclopropyl)methyl) 4-octyl 2-methylenesuccinate]	4.72	5.02	–
C=C(CC(=O)OCCCCCCCC)C(=O)OCC(C)OC (stereo not drawn) [Example 33, 1-(2-methoxypropyl) 4-octyl 2-methylenesuccinate]	4.85	4.93	–
C=C(CC(=O)OCCCCCCCC)C(=O)OCC(C)(C)OC [Example 34, 1-(2-methoxy-2-methylpropyl) 4-octyl 2-methylenesuccinate]	4.50	4.79	–
C=C(CC(=O)OCCCCCCCC)C(=O)OC(C)OC(C)=O (stereo not drawn) [Example 46, 1-(1-acetoxyethyl) 4-octyl 2-methylenesuccinate]	5.17	5.52	–
C=C(CC(=O)OCCCCCCCC)C(=O)OCC(=O)OC(C)(C)C [Example 48, 1-(2-(tert-butoxy)-2-oxoethyl) 4-octyl 2-methylenesuccinate]	5.00	5.29	–
C=C(CC(=O)OC(C)COCCCC)C(=O)O[C@H]1[C@@H]2CC[C@H]1CN(S(C)(=O)=O)C2 (stereo partly drawn) [Example 159, 4-(1-butoxypropan-2-yl) 1-((endo)-3-(methylsulfonyl)-3-azabicyclo[3.2.1]octan-8-yl) 2-methylenesuccinate]	4.50	–	Emax (NRF2; [4]): 86%; pEC50 (NRF2; [5]): 4.86
C=C(CC(=O)OC1CC2(CCC2)C1)C(=O)OCC(O)(O)C(F)(F)F [Example 160, 4-spiro[3.3]heptan-2-yl 1-(3,3,3-trifluoro-2,2-dihydroxypropyl) 2-methylenesuccinate Hydrate]	–	–	pIC50 ([1]; PMA-differentiated THP-1 cells): 5.09; pEC50 (NRF2; U2OS, 6 h): 4.14; Emax (NRF2; U2OS): 7%

Continued, in another order:

pIC50 [1, 3]	pIC50 [2]	Compound	further results
5.17	5.43	C=C(CC(=O)OCCCCCCCC)C(=O)OCCN1CCOCC1 [Example 35, 1-(2-morpholinoethyl) 4-octyl 2-methylenesuccinate]	–
4.69	5.05	C=C(CC(=O)OCCOCCOCC)C(=O)OCCS(C)(=O)=O [Example 36, 4-(2-(2-ethoxyethoxy)ethyl) 1-(2-(methylsulfonyl)ethyl) 2-methylenesuccinate]	–
5.48	5.52	C=C(CC(=O)OCCCCCCCC)C(=O)OC1CS(=O)(=O)C1 [Example 47, 1-(1,1-dioxidothietan-3-yl) 4-octyl 2-methylenesuccinate]	–
5.14	5.40	C=C(CC(=O)OCCCCCCCC)C(=O)OCCN1CCN(C)CC1 [Example 51, 1-(2-(4-methylpiperazin-1-yl)ethyl) 4-octyl 2-methylenesuccinate]	–
5.07	5.60	C=C(CC(=O)OCCCCCCCC)C(=O)OCCN1CCS(=O)(=O)CC1 [Example 52, 1-(2-(1,1-dioxidothiomorpholino)ethyl) 4-octyl 2-methylenesuccinate]	–
5.03	5.27	C=C(CC(=O)OCCCCCCCC)C(=O)OCCNS(C)(=O)=O [Example 53, 1-(2-(methylsulfonamido)ethyl) 4-octyl 2-methylenesuccinate]	–
4.38	–	C=C(CC(=O)OC1CC2(COC2)C1)C(=O)O[C@H]1[C@@H]2CC[C@H]1CN(S(C)(=O)=O)C2 [Example 157, 1-((endo)-3-(methylsulfonyl)-3-azabicyclo[3.2.1]octan-8-yl) 4-(2-oxaspiro[3.3]heptan-6-yl) 2-methylenesuccinate]	Emax (NRF2; [4]): 29%; pEC50 (NRF2; [5]): < 4.00
4.62	–	C=C(CC(=O)OC1CCCOCC1)C(=O)O[C@H]1[C@@H]2CC[C@H]1CN(S(C)(=O)=O)C2 (stereo partly drawn) [Example 158, 1-((endo)-3-(methylsulfonyl)-3-azabicyclo[3.2.1]octan-8-yl) 4-(oxepan-4-yl) 2-methylenesuccinate]	Emax (NRF2; [4]): 43%; pEC50 (NRF2; [5]): 4.14
4.83	–	C=C(CC(=O)OC1CCCCCC1)C(=O)OCc1nn[nH]n1 [Example 162, 1-(2H-tetrazol-5-yl)methyl 4-cycloheptyl 2-methylenesuccinate]	Emax (NRF2; [4]): 164%; pEC50 (NRF2; [5]): 4.50
4.62	–	C=C(CC(=O)OC1CC2(CCC2)C1)C(=O)OCc1nn[nH]n1 [Example 163, 1-(2H-tetrazol-5-yl)methyl 4-spiro[3.3]heptan-2-yl 2-methylenesuccinate]	Emax (NRF2; [4]): 0%; pEC50 (NRF2; [5]): < 4.00
4.24	–	C=C(C(=O)OCC(=O)O)C(O)C(=O)OC1CCCCCCC1 (stereo not drawn) [Example 189, 2-((4-(cyclooctyloxy)-3-hydroxy-2-methylene-4-oxobutanoyl)oxy)acetic acid]	Emax (NRF2; [4]): 137%; pEC50 (NRF2; [5]): 4.74
